Assay results: article PMC8973347, “Discovery of novel sulphonamide hybrids that inhibit LSD1 against bladder cancer cells” (Journal of Enzyme Inhibition and Medicinal Chemistry, 2022)
“Also recorded” adds a separate entry of the source.

How the values were obtained:
[1] = system: HPAEpiC (normal human alveolar epithelial cell line); experiment: MTT cell viability assay, HPAEpiC; conditions: read-out: IC50 against HPAEpiC normal cell line, 48 h
Procedure: (§1) Cells were cultured at a 96-well plate for 24 h (Cayman Chemical, Fort Annapolis, MI) and different compounds were added. […] The solution was removed and dimethyl sulphoxide was added. Thirty minutes later, absorption values were read by a Fully Automated Microplate ELISA Analyser (DeTie, NanJing, China).

[2] = system: H1299 (human lung cell line); experiment: MTT cell viability assay, H1299; conditions: read-out: IC50 against H1299 cells, 48 h
Procedure: as §1

[3] = system: Jurkat (human leukaemia cell line); experiment: MTT cell viability assay, Jurkat; conditions: read-out: IC50 against Jurkat cells, 48 h
Procedure: as §1

[4] = system: Bel7402 (human liver cell line); experiment: MTT cell viability assay, Bel7402; conditions: read-out: IC50 against Bel7402 cells, 48 h
Procedure: as §1

[5] = system: LX-2 (normal human hepatic stellate cell line); experiment: MTT cell viability assay, LX-2; conditions: read-out: IC50 against LX-2 normal cell line, 48 h
Procedure: as §1

[6] = target: T1, MAO-B (Homo sapiens, UniProt P27338); experiment: MAO-A/B biochemical kit, MAO-B
T1 construct: purchased Promega
T1 sequence (P27338 1-520): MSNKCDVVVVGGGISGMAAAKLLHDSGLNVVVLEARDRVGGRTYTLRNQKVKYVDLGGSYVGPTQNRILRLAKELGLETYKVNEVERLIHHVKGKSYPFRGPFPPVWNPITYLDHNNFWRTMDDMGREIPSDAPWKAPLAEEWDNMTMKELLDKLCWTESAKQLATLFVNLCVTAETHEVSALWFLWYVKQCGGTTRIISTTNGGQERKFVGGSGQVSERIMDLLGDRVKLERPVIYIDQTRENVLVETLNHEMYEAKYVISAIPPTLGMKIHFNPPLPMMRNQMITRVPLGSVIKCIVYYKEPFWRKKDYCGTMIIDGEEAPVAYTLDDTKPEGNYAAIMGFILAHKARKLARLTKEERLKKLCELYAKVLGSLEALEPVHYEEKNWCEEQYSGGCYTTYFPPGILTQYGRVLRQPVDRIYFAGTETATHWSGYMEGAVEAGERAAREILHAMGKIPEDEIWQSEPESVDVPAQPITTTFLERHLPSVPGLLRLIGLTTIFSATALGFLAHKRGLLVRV
Description: (§2) LSD1 inhibitor screening assay kit was purchased to evaluate for the enzyme inhibition activity of all synthetic compounds (Cayman Chemical, Fort Annapolis, MI). The MAO-A/B biochemical kit was purchased to explore the inhibitory activity against MAO-A and MAO-B (Promega, Madison, WI). […] The signal of each well was read by a GloMax Explorer (Beijing Yuanpinghao Biotechnology Co., Ltd, Beijing, China).

[7] = system: HTB3&shLSD1 cells; experiment: Antiproliferative activity, LSD1 knock-down cells HTB3&shLSD1; conditions: read-out: IC50 against HTB3&shLSD1 cells
Procedure: as §1

[8] = system: HCT-15 (human colon cell line); experiment: MTT cell viability assay, HCT-15; conditions: read-out: IC50 against HCT-15 cells, 48 h
Procedure: as §1

[9] = system: SGC-7901 (human gastric cell line); experiment: MTT cell viability assay, SGC-7901; conditions: read-out: IC50 against SGC-7901 cells, 48 h
Procedure: as §1

[10] = system: HTB3 (human bladder cell line); experiment: MTT cell viability assay, HTB3; conditions: read-out: IC50 against HTB3 cells, 48 h
Procedure: as §1

[11] = system: HTB5 cells (bladder cancer cell line); experiment: MTT cell viability assay, HTB5; conditions: read-out: IC50 against HTB5 cells; 48 h
Procedure: as §1

[12] = target: T2, LSD1 (Homo sapiens, UniProt O60341); experiment: LSD1 inhibitor screening assay kit
Description: as §2

[13] = system: HT1376&shLSD1 cells; experiment: Antiproliferative activity, LSD1 knock-down cells HT1376&shLSD1; conditions: read-out: IC50 against HT1376&shLSD1 cells
Procedure: as §1

[14] = system: HT1376 cells (bladder cancer cell line); experiment: MTT cell viability assay, HT1376; conditions: read-out: IC50 against HT1376 cells; 48 h
Procedure: as §1

[15] = system: HIEC (normal human intestinal epithelial cell line); experiment: MTT cell viability assay, HIEC; conditions: read-out: IC50 against HIEC normal cell line, 48 h
Procedure: as §1

[16] = target: T3, MAO-A (Homo sapiens, UniProt P21397); experiment: MAO-A/B biochemical kit, MAO-A
T3 construct: purchased Promega
T3 sequence (P21397 1-527): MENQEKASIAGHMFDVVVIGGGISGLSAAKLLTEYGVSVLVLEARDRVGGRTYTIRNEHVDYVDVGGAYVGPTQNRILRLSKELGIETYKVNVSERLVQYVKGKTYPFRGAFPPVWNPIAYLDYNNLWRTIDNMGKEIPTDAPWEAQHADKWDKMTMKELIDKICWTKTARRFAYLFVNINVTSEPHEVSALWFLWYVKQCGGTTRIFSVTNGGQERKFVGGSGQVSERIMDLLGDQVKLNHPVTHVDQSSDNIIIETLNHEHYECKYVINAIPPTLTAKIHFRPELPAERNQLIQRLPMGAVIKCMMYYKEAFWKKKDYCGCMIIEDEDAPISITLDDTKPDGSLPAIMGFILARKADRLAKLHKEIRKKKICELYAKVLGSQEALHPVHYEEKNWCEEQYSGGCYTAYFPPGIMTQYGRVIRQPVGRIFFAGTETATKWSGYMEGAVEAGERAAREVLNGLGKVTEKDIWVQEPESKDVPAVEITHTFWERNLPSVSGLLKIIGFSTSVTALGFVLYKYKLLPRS
Description: as §2

[17] = system: HTB1 cells (bladder cancer cell line); experiment: MTT cell viability assay, HTB1; conditions: read-out: IC50 against HTB1 cells; 48 h
Procedure: as §1

[18] = system: H3K4me1, H3K4me2, and H3K9me2 in HT1376 cells; experiment: Western blotting of LSD1 substrates; type: cell-based; conditions: Figure 4(D)
Procedure: Cells were seeded in four-well plates (Shanghai Yuanye Biotechnology Co., Ltd, Shanghai, China) and exposed to different compounds at different concentrations. Cells were harvested to obtain protein solution by the RIPA Lysis Buffer (DeTie, NanJing, China). The proteins were separated on sodium dodecyl sulphate–polyacrylamide gel electrophoresis (SDS-PAGE) gels and then transferred to poly(vinylidene fluoride (PVDF) membranes (Shanghai Yuanye Biotechnology Co., Ltd, Shanghai, China). It incubated with the primary antibodies and corresponding HRP conjugated secondary antibodies (Servicebio, Wuhan, China). The […] kit (Servicebio, Wuhan, China) was used to visualise the bands.

[19] = system: HTB3&shControl cells; experiment: Antiproliferative activity, control cells HTB3&shControl; conditions: read-out: IC50 against HTB3&shControl cells
Procedure: as §1

[20] = target: T2, LSD1; experiment: LSD1 dilution assay; type: biochemical; parameters: purchased Cayman Chemical; conditions: diluted 80 times; Figure 3(C)
Procedure: LSD1 recombinant (Cayman Chemical, […], MI) was incubated with the targeted compound or dimethyl sulphoxide for 60 min. Then, samples were diluted 80 times using a HRP-assay solution containing substrate and coupling reagents. Finally, LSD1 inhibitory activity before and after dilution was examined.

[21] = system: HT1376&shControl cells; experiment: Antiproliferative activity, control cells HT1376&shControl; conditions: read-out: IC50 against HT1376&shControl cells
Procedure: as §1

## COc1cc(N(CCCCSC(=S)N2CCN(CCO)CC2)S(=O)(=O)c2cccc3cccnc23)cc(OC)c1OC [Compound L8, 4-(N-(3,4,5-trimethoxyphenyl)quinoline-8-sulfonamido)butyl-4–(2-hydroxyethyl)piperazine-1-carbodithioate]
[1]
  IC50: > 16000 nM
[2]
  IC50: 310 nM
[3]
  IC50: 290 nM
[4]
  IC50: 960 nM
[5]
  IC50: > 16000 nM
[6]
  IC50: > 120 µM
[6]; at 100 nM
  inhibitory rate MAO-B: 9.33%
[7]
  IC50: 3070 nM
[8]
  IC50: 2170 nM
[9]
  IC50: 2670 nM
[10]
  IC50: 180 nM
[11]
  IC50: 1870 nM
[12]; Figure 3(B)
  time dependence of LSD1 inhibition: time-dependent
[12]; at 25 nM
  inhibition against LSD1: about 30.33%
[12]; at 50 nM
  inhibition against LSD1: ~46.00%
[12]; at 100 nM
  inhibition against LSD1: ~68.00%
[12]; read-out: IC50 (μM) LSD1
  IC50: 0.06 ± 0.01 µM
[13]
  IC50: 4360 nM
[14]
  IC50: 90 nM
[15]
  IC50: > 16000 nM
[16]
  IC50: > 120 µM
[16]; at 100 nM
  inhibitory rate MAO-A: 10.33%
[17]
  IC50: 930 nM
[18]
  expression levels of H3K4me1, H3K4me2, and H3K9me2: increasing; also recorded: increased
[19]
  IC50: 230 nM
[20]
  reversibility of LSD1 inhibition: reversible
[21]
  IC50: 110 nM
